Source: BigSolDB 2.1

O=C1CCC(c2ccccc2)=NN1
solubility (mole fraction)
Conditions | 293.15 K | 298.15 K | 303.15 K | 308.15 K | 313.15 K
in transcutol | 0.425 | 0.453 | 0.478 | 0.507 | 0.527
in water | 7.45e-07 | 9.1e-07 | 1.09e-06 | 1.34e-06 | 1.64e-06
